What was measured:
crabgrass = assay: Test B pre/postemergence crabgrass; format: in vivo, Digitaria sanguinalis
Method in brief: (§1)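 Response is a visual 0-to-10 score relative to untreated plants, where 0 means no effect and 10 means complete control, taken twelve to sixteen days after application. Treatments went onto soil at planting and onto foliage of 1- to 4-leaf plants, using a surfactant-containing non-phytotoxic solvent.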

wheat = assay: Test B pre/postemergence wheat; format: in vivo, Triticum aestivum
Method in brief: as §1

surinam grass = assay: Test B pre/postemergence surinam grass; format: in vivo, Brachiaria decumbens
Method in brief: as §1

blackgrass = assay: Test B pre/postemergence blackgrass; format: in vivo, Alopecurus myosuroides
Method in brief: as §1

purple nutsedge = assay: Test B pre/postemergence purple nutsedge; format: in vivo, Cyperus rotundus
Method in brief: as §1

morningglory = assay: Test B pre/postemergence morningglory; format: in vivo, Ipomoea hederacea
Method in brief: as §1

rice = assay: Test B flood test rice; format: in vivo, Oryza sativa
Method in brief: (§2)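 Read-out is a visual response score from 0 (no effect) to 10 (complete control), assigned by comparison with untreated controls. Treatment was applied at the 2-leaf stage, and plants stayed in the greenhouse for twelve to sixteen days before scoring.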

velvetleaf = assay: Test B pre/postemergence velvetleaf; format: in vivo, Abutilon theophrasti
Method in brief: as §1

giant foxtail = assay: Test B pre/postemergence giant foxtail; format: in vivo, Setaria faberii
Method in brief: as §1

bedstraw = assay: Test B pre/postemergence bedstraw; format: in vivo, Galium aparine
Method in brief: as §1

smallflower flatsedge = assay: Test B flood test smallflower flatsedge; format: in vivo, Cyperus difformis
Method in brief: as §2

soybean = assay: Test B pre/postemergence soybean; format: in vivo, Glycine max
Method in brief: as §1

duck salad = assay: Test B flood test duck salad; format: in vivo, Heteranthera limosa
Method in brief: as §2

wild oat = assay: Test B pre/postemergence wild oat; format: in vivo, Avena fatua
Method in brief: as §1

corn = assay: Test B pre/postemergence corn; format: in vivo, Zea mays
Method in brief: as §1

pigweed = assay: Test B pre/postemergence pigweed; format: in vivo, Amaranthus retroflexus
Method in brief: as §1

[1] = Postemergence, Rate 125 g/ha, scale of 0 to 10 where 0 is no effect and 10 is complete control
[2] = Preemergence, Rate 62 g/ha, scale 0 to 10 (0 no effect, 10 complete control)
[3] = Preemergence, Rate 125 g/ha, 0 is no effect, 10 is complete control
[4] = Preemergence, Rate 250 g/ha, scale 0 to 10, 0 is no effect, 10 is complete control
[5] = Preemergence, Rate 500 g/ha, scale 0 to 10 (0 no effect, 10 complete control)
[6] = Rate 62 g/ha, Postemergence, scale of 0 to 10 where 0 is no effect and 10 is complete control
[7] = Rate 250 g/ha, Postemergence, scale 0 to 10, 0 is no effect, 10 is complete control
[8] = Rate 500 g/ha, Postemergence, scale 0 to 10
[9] = Postemergence (flood test species), Rate 125 g/ha, scale of 0 to 10 where 0 is no effect and 10 is complete control
[10] = Rate 62 g/ha, Postemergence section, flood test species, scale of 0 to 10 where 0 is no effect and 10 is complete control
[11] = Rate 250 g/ha, Postemergence (flood test), scale 0 to 10, 0 is no effect, 10 is complete control
[12] = Rate 500 g/ha, listed under Postemergence (flood test species), scale 0 to 10

## CC(C)c1noc(C(C)C)c1-n1c(=O)on(C(=O)N(c2ccc(F)cc2)C(C)C)c1=O [Compound 135]
crabgrass; [1]
  Crabgrass plant response rating: 0
crabgrass; [2]
  Crabgrass plant response rating: 0
crabgrass; [3]
  Crabgrass plant response rating (0 to 10 scale): 0
crabgrass; [4]
  Crabgrass plant response rating: 0
crabgrass; [5]
  Crabgrass plant response rating: 4
crabgrass; [6]
  Crabgrass plant response rating: 0
crabgrass; [7]
  Plant response rating, Crabgrass: 0
wheat; [1]
  Wheat plant response rating: 0
wheat; [2]
  Wheat plant response rating: 0
wheat; [3]
  Wheat plant response rating (0 to 10 scale): 0
wheat; [4]
  Wheat plant response rating: 0
wheat; [5]
  Wheat plant response rating: 0
wheat; [6]
  Wheat plant response rating: 0
wheat; [7]
  Plant response rating, Wheat: 0
wheat; [8]
  Wheat plant response rating: 0
Surinam grass; [1]
  B. signalgrass plant response rating: 0
Surinam grass; [2]
  B. signalgrass plant response rating: 0
Surinam grass; [3]
  B. signalgrass plant response rating (0 to 10 scale): 0
Surinam grass; [4]
  B. signalgrass plant response rating: 3
Surinam grass; [5]
  B. signalgrass plant response rating: 4
Surinam grass; [6]
  B. signalgrass plant response rating: 0
Surinam grass; [7]
  Plant response rating, B. signalgrass: 0
Surinam grass; Rate 500 g/ha, Postemergence, scale of 0 to 10 where 0 is no effect and 10 is complete control
  B. signalgrass plant response rating: 0
blackgrass; [1]
  Blackgrass plant response rating: 0
blackgrass; [2]
  Blackgrass plant response rating: 0
blackgrass; [3]
  Blackgrass plant response rating (0 to 10 scale): 0
blackgrass; [4]
  Blackgrass plant response rating: 0
blackgrass; [5]
  Blackgrass plant response rating: 4
blackgrass; [6]
  Blackgrass plant response rating: 0
blackgrass; [7]
  Plant response rating, Blackgrass: 0
blackgrass; [8]
  Blackgrass plant response rating: 0
Purple nutsedge; [1]
  Nutsedge plant response rating: 0
Purple nutsedge; [2]
  Nutsedge plant response rating: 0
Purple nutsedge; [3]
  Nutsedge plant response rating (0 to 10 scale): 0
Purple nutsedge; [4]
  Nutsedge plant response rating: 0
Purple nutsedge; [5]
  Nutsedge plant response rating: 0
Purple nutsedge; [6]
  Nutsedge plant response rating: 0
Purple nutsedge; [7]
  Plant response rating, Nutsedge: 0
Purple nutsedge; [8]
  Nutsedge plant response rating: 0
morningglory; [1]
  Morningglory plant response rating: 1
morningglory; [2]
  Morningglory plant response rating: 0
morningglory; [3]
  Morningglory plant response rating (0 to 10 scale): 0
morningglory; [4]
  Morningglory plant response rating: 0
morningglory; [5]
  Morningglory plant response rating: 0
morningglory; [6]
  Morningglory plant response rating: 0
morningglory; [7]
  Plant response rating, Morningglory: 1
morningglory; [8]
  Morningglory plant response rating: 1
rice; [9]
  Rice plant response rating: 0
rice; [10]
  Rice plant response rating: 0
rice; [11]
  Plant response rating, Rice: 0
rice; [12]
  Rice plant response rating: 0
velvetleaf; [1]
  Velvetleaf plant response rating: 0
velvetleaf; [2]
  Velvetleaf plant response rating: 0
velvetleaf; [3]
  Velvetleaf plant response rating (0 to 10 scale): 0
velvetleaf; [4]
  Velvetleaf plant response rating: 0
velvetleaf; [5]
  Velvetleaf plant response rating: 0
velvetleaf; [6]
  Velvetleaf plant response rating: 0
velvetleaf; [7]
  Plant response rating, Velvetleaf: 0
velvetleaf; [8]
  Velvetleaf plant response rating: 0
Giant foxtail; [1]
  Giant foxtail plant response rating: 0
Giant foxtail; [2]
  Giant foxtail plant response rating: 0
Giant foxtail; [3]
  Giant foxtail plant response rating (0 to 10 scale): 0
Giant foxtail; [4]
  Giant foxtail plant response rating: 0
Giant foxtail; [6]
  Giant foxtail plant response rating: 0
Giant foxtail; [7]
  Plant response rating, Giant foxtail: 0
Giant foxtail; [8]
  Giant foxtail plant response rating: 0
bedstraw; [1]
  Bedstraw plant response rating: 0
bedstraw; [3]
  Bedstraw plant response rating (0 to 10 scale): 0
bedstraw; [4]
  Bedstraw plant response rating: 0
bedstraw; [5]
  Bedstraw plant response rating: 4
bedstraw; [6]
  Bedstraw plant response rating: 0
bedstraw; [7]
  Plant response rating, Bedstraw: 2
Smallflower flatsedge; [9]
  S. Flatsedge plant response rating: 0
Smallflower flatsedge; [10]
  S. Flatsedge plant response rating: 0
Smallflower flatsedge; [11]
  Plant response rating, S. Flatsedge: 0
Smallflower flatsedge; [12]
  S. Flatsedge plant response rating: 0
soybean; [1]
  Soybean plant response rating: 2
soybean; [2]
  Soybean plant response rating: 0
soybean; [3]
  Soybean plant response rating (0 to 10 scale): 0
soybean; [4]
  Soybean plant response rating: 0
soybean; [5]
  Soybean plant response rating: 0
soybean; [6]
  Soybean plant response rating: 2
soybean; [7]
  Plant response rating, Soybean: 3
soybean; [8]
  Soybean plant response rating: 3
Duck salad; [9]
  Ducksalad plant response rating: 0
Duck salad; [10]
  Ducksalad plant response rating: 0
Duck salad; [11]
  Plant response rating, Ducksalad: 0
Duck salad; [12]
  Ducksalad plant response rating: 0
Wild oat; [1]
  Wild oats plant response rating: 0
Wild oat; [2]
  Wild oats plant response rating: 0
Wild oat; [3]
  Wild oats plant response rating (0 to 10 scale): 0
Wild oat; [4]
  Wild oats plant response rating: 0
Wild oat; [5]
  Wild oats plant response rating: 0
Wild oat; [6]
  Wild oats plant response rating: 0
Wild oat; [7]
  Plant response rating, Wild oats: 0
Wild oat; [8]
  Wild oats plant response rating: 0
corn; [1]
  Corn plant response rating: 0
corn; [2]
  Corn plant response rating: 0
corn; [3]
  Corn plant response rating (0 to 10 scale): 0
corn; [4]
  Corn plant response rating: 0
corn; [5]
  Corn plant response rating: 0
corn; [6]
  Corn plant response rating: 0
corn; [7]
  Plant response rating, Corn: 0
corn; [8]
  Corn plant response rating: 0
pigweed; [1]
  Redroot pigweed plant response rating: 0
pigweed; [3]
  Redroot pigweed plant response rating (0 to 10 scale): 3
pigweed; [4]
  Redroot pigweed plant response rating: 4
pigweed; [5]
  Redroot pigweed plant response rating: 4
pigweed; [6]
  Redroot pigweed plant response rating: 0
pigweed; [7]
  Plant response rating, Redroot pigweed: 0
pigweed; [8]
  Redroot pigweed plant response rating: 0
